# Experimental data: patent US10744127B2, “MDR-reversing 8-hydroxy-quinoline derivatives” (MAGYAR TUDOMÁNYOS AKADÉMIA TERMÉSZETTUDOMÁNYI KUTATÓKÖZPONT, priority 2016, dated 2020)
# Like-named read-outs stand apart in the source and are kept apart here.
# How the values were obtained:
# [1] = system: A431 and A431-B1 cell lines; assay: Selective toxicity in A431 and A431-B1 cell lines; type: cell-based, human; details: A431 versus P-gp-transfected A431-B1
# Method: (§1) Cell survival was measured by the PrestoBlue® Cell Viability Reagent (Life Technologies, USA). Cells were seeded in 100 μl medium at a density of 5000 cells/well in 96-well plates; the serially diluted drug was added the following day. Cells were then incubated for 72 hours at 37° C. in 5% CO2; the drug containing medium was removed, and the PrestoBlue® reagent was added according to the manufacturer's instructions. Fluorescence of the cells was measured by a Perkin Elmer EnSpire multimode plate reader or Perkin Elmer Victor X3 microplate reader. Data were background corrected and normalized to untreated cells. Curves were fitted with the help of Prism software using the sigmoidal dose-response model. Curve fit statistics were used to determine IC50 values. Differences between the IC50 values of the respective cell lines were analyzed by two-sided […] unpaired Student's t test and results were considered statistically significant at a P value of <0.05 (*) or 0.01 (**).
# (§2) Data on selective toxicity (expressed as Selectivity Ratio, SR) in two MDR models engineered by retroviral transfection of P-glycoprotein (A431/A431-B1 and MDCK II/MDCK II B1 cell lines) are presented in Table 3 and Table 4.
# (§3) A431 is a human epidermoid carcinoma cell line. Its derivative, the A431-B1 cell line expresses P-gp due to retroviral transfection of the mdr1 gene Türk, D. et al (Türk, D. et al., 2009). MDCK II is a canine kidney cell line. MDCK II B1 was created by inserting the mdr1 gene with transposons [Pape V F S et al. 2015] Both cell express P-gp stably, and show a stable MDR phenotype. Culture conditions were identical as in the case of MES-SA cells.
# [2] = system: MES-SA and MES-SA/Dx5 cells; assay: Selective toxicity in the presence of the P-gp inhibitor tariquidar; type: cell-based, human; details: selectivity ratio in the presence of tariquidar (1 μM)
# Method: In the presence of tariquidar (an inhibitor of P-gp function), the toxicity of the compounds selectively diminishes in multidrug-resistant MES-SA/Dx5 cells, while the toxicity is unchanged against parental MESSA cells, which is reflected by a decrease in the selectivity ratio (SR (TQ)).
# To investigate the contribution of P-glycoprotein to the cytotoxic effect of a compound, cell survival was measured in the presence of the P-glycoprotein inhibitor tariquidar (1 μM). Tariquidar (CAS 206873-63-4) can be obtained e.g. from Selleck, Houston, USA.
# [3] = system: MES-SA and multidrug-resistant MES-SA/Dx5 cell line; assay: Selective toxicity (ratio of IC50 in MES-SA to IC50 in MES-SA/Dx5) and activity index; type: cell-based, human
# Description: Compounds having P-gp potentiated MDR-selective activity can be characterized by their inhibitory concentration (IC) with regard to a specific cancer cell line. Usually the IC value is given at a certain percentage ratio of non-inhibited molecules or surviving cells. For example an IC20 value of a compound on a cell line means that at this inhibitory concentration of the compound 80% of the cells are killed whereas 20% of the cells are still viable. A further characteristic of MDR-selective drugs is the selectivity ratio (SR), which is the ratio of the IC value measured in a non-multidrug resistant cell line to (i.e. divided by) the IC value measured in the corresponding transformed, multidrug-resistant cell line. The inverse value, the resistance ratio (RR) is calculated as the ratio of a compound's IC value against a multidrug resistant cell line divided by the parallel IC value of the same compound against a control non-multidrug resistant cell line. The Activity Index (AI) is calculated here as the ratio of the compound's selectivity ratio (SR) and the compound's IC50 value against the resistant cell. The AI reflects the level of simultaneous toxicity and selectivity towards multidrug-resistant cancer cells.
# (§4) The human uterine sarcoma cell line MES-SA and its doxorubicin resistant counterpart MES-SA/Dx5 were obtained from ATCC (MES-SA: No. CRL-1976™, MES-SA-Dx5: No. CRL-1977™). MES-SA/Dx5 cells express high levels of P-gp, and therefore are multidrug resistant (MDR). Cells were cultured in DMEM supplemented with 10% FBS, 5 mmol/L glutamine and 50 unit/mL penicillin and streptomycin (Life Technologies).
# as §1
# Selectivity towards multidrug-resistant cells is expressed as the ratio of the IC50 value measured in the parental MES-SA and multidrug-resistant MES-SA/Dx5 cell line (Selectivity Ratio, SR).
# A novel characteristic of the compounds presented in this invention is that they exert their selective cytotoxicity at low IC50 values. Simultaneous toxicity and selectivity towards multidrug-resistant cancer cells is reflected by the Activity Index (AI) of the compounds, which is the ratio of the selectivity ratio (SR) and the IC50 value on the resistant cell line.
# MES-SA/Dx5 cell line = assay: Cytotoxicity, PrestoBlue cell viability assay, MES-SA/Dx5; type: cell-based; details: Homo sapiens
# Method: as §4, §1
# MES-SA cell line = assay: Cytotoxicity, PrestoBlue cell viability assay, parental MES-SA; type: cell-based; details: Homo sapiens; parental MES-SA cell line (Table 2a)
# Method: as §4, §1
# [4] = system: P-gp-expressing MES-SA/Dx5 cells; assay: P-gp switch assay (Calcein AM); type: cell-based, human; details: MES-SA/Dx5, single dose at IC20 (killing 80% of the cells), surviving population at 80% confluence, Calcein AM
# Method: One million P-gp-expressing MES-SA/Dx5 cells were plated in a T25 cell culture flask. After 24 hours the compound of interest was added directly to the cells at a concentration corresponding to the IC20 value (killing 80% of the cells). After 5 days the culture media was removed, the cells were washed with PBS and the culture medium was exchanged. Cells were monitored daily and the recovery was recorded. The medium was changed every 5 days until the confluence of the cells reached 80%. At 80% confluence the cells were removed by gentle trypsinization, counted by an automated cell counter and stained with Calcein AM, a cellular dye able to detect the function of P-gp (Homolya 1993). P-gp-positivity was evaluated based on the ability of P-gp-expressing cells to extrude Calcein AM.
# [5] = system: MDCK II and MDCK II B1 cell lines; assay: Selective toxicity towards MDCK II and MDCK II B1 cell lines; type: cell-based, canine; details: MDCK II versus MDCK II B1
# Method: as §1, §2, §3
# [6] = MES-SA / MES-SA/Dx5, without tariquidar (Table 5)
# [7] = multidrug-resistant MES-SA/Dx5 cell line (Table 2a), read-out: IC50 (nM) in MES-SA/Dx5 cell line
# [8] = MES-SA/Dx5 (Table 2b), read-out: IC50 (μM) Dx5
# [9] = Mes-sa/Dx5 cell line, PrestoBlue assay, 72 hours (Table 1), read-out: IC50
structure (smiles),measurement,setting,value
"COc1ccc(CNCc2cc(Cl)c3cccnc3c2O)cc1 [Example 7, 5-Chloro-7-(((4-methoxybenzyl)amino)methyl)quinolin-8-ol]",Selectivity Ratio (SR) (A431/A431-B1),[1],12.6
same,SR (TQ),[2],1.3
same,melting point,,125 to 127 °C
same,SR,[3]; [6],13.4
"Oc1c(CN2CCCCC2)ccc2ccc(N/N=C/c3ccccn3)nc12 [Example 5, (E/Z)-7-(Piperidin-1-ylmethyl)-2-(2-(pyridine-2-ylmethylene)hydrazinyl)quinolin-8-ol]",IC50,MES-SA/Dx5 cell line; [7],1970 nM
same,SR (TQ),[2],1.2
same,IC50,MES-SA cell line,40500 nM
same,Fraction of P-gp-negative cells (P3) in the population,[4],67.6%
same,Fraction of P-gp-positive cells (P4) in the population,[4],32.40%
same,melting point,,248 to 250 °C
same,SR,[3]; [6],20.9
"COc1cc2c(cc1OC)C(c1cc(Cl)c3cccnc3c1O)NCC2 (stereo not shown) [Example 16, 5-Chloro-7-(6,7-dimethoxy-1,2,3,4-tetrahydroisoquinolin-1-yl)quinolin-8-ol]",Selectivity Ratio (SR) (A431/A431-B1),[1],24.7
same,SR (TQ),[2],0.9
same,SR,[3]; [6],10.3
"C/C(=N\Nc1ccc2ccc(CN3CCCCC3)c(O)c2n1)c1ccccc1O [Example 4, (E/Z)-2-(2-(1-(2-Hydroxyphenyl)ethylidene)hydrazinyl)-7-(piperidin-1-ylmethyl)quinolin-8-ol]",IC50,MES-SA/Dx5 cell line; [8],160 nM
same,IC50,MES-SA/Dx5 cell line; [9],160 nM
same,Selectivity Ratio (SR) (A431/A431-B1),[1],11.7
same,melting point,,184 to 187 °C
same,SR,[3]; MES-SA / MES-SA/Dx5 (Table 2b),5.9
"O=C1NC2CCCCC2NC1c1cc(Cl)c2cccnc2c1O (mixture of isomers) [Example 22, (3R,4aS,8aS)-3-(5-Chloro-8-hydroxyquinolin-7-yl)octahydroquinoxalin-2(1H)-one and (3S,4aS,8aS)-3-(5-chloro-8-hydroxyquinolin-7-yl)octahydroquinoxalin-2(1H)-one]",Selectivity Ratio (SR) (A431/A431-B1),[1],18.8
"Oc1c(C2NCCc3ccccc32)cc(Cl)c2cccnc12 (stereo not shown) [Example 13, 5-Chloro-7-(1,2,3,4-tetrahydroisoquinolin-1-yl)quinolin-8-ol]",IC50,MES-SA/Dx5 cell line; [9],127 nM
same,Fraction of P-gp-negative cells (P3) in the population,[4],88.00%
same,Fraction of P-gp-positive cells (P4) in the population,[4],12.00%
"Oc1c(CNC2CCCCC2)cc(Cl)c2cccnc12 [Example 6, 5-Chloro-7-((cyclohexylamino)methyl)quinolin-8-ol]",Selectivity Ratio (SR) (A431/A431-B1),[1],11.5
same,melting point,,123 to 125 °C
Cc1ccc2ccc(C3NCCc4sccc43)c(O)c2n1 (stereo not shown) [Example 20],Selectivity Ratio (SR) (A431/A431-B1),[1],13.2
same,Selectivity Ratio (SR) (MDCK II/MDCK II B1),[5],10.0
"COc1ccc(CNCc2cc(S(C)(=O)=O)c3cccnc3c2O)c(OC)c1 [Example 37, 7-(((2,4-Dimethoxybenzyl)amino)methyl)-5-(methylsulfonyl)quinolin-8-ol]",Selectivity Ratio (SR) (A431/A431-B1),[1],16.7
same,Selectivity Ratio (SR) (MDCK II/MDCK II B1),[5],8.9
"O=[N+]([O-])c1cc(C2NCCc3ccccc32)c(O)c2ncccc12 (stereo not shown) [Example 15, 5-Nitro-7-(1,2,3,4-tetrahydroisoquinolin-1-yl)quinolin-8-ol]",IC50,MES-SA/Dx5 cell line; [8],590 nM
same,IC50,MES-SA/Dx5 cell line; [7],594 nM
same,SR (TQ),[2],1.4
same,IC50,MES-SA cell line,12400 nM
same,Fraction of P-gp-negative cells (P3) in the population,[4],67.2%
same,Fraction of P-gp-positive cells (P4) in the population,[4],32.80%
same,SR,[3]; MES-SA / MES-SA/Dx5 (Table 2b),23.8
same,SR,[3]; [6],23.8
"Cl.Oc1c(CNCc2ccccc2F)cc(Cl)c2cccnc12 [Example 12, 5-Chloro-7-({[(2-fluorophenyl)methyl]amino}methyl)quinolin-8-ol Hydrochloride]",Selectivity Ratio (SR) (MDCK II/MDCK II B1),[5],8.3
"Oc1c(C2NCCc3ccccc32)cc(Br)c2cccnc12 (stereo not shown) [Example 14, 5-Bromo-7-(1,2,3,4-tetrahydroisoquinolin-1-yl)quinolin-8-ol]",IC50,MES-SA/Dx5 cell line; [8],130 nM
same,IC50,MES-SA/Dx5 cell line; [9],130 nM
same,Selectivity Ratio (SR) (A431/A431-B1),[1],13.7
same,SR,[3]; MES-SA / MES-SA/Dx5 (Table 2b),7.8
"COc1ccccc1CNCc1cc(Br)c2cccnc2c1O [Example 8, 5-Bromo-7-(((2-methoxybenzyl)amino)methyl)quinolin-8-ol]",IC50,MES-SA/Dx5 cell line; [8],160 nM
same,IC50,MES-SA/Dx5 cell line; [9],161 nM
same,melting point,,135 to 137 °C
same,SR,[3]; MES-SA / MES-SA/Dx5 (Table 2b),13.5
"O=[N+]([O-])c1cc(C2NCCc3sccc32)c(O)c2ncccc12 (stereo not shown) [Example 19, 5-Nitro-7-(4,5,6,7-tetrahydrothieno[3,2-c]pyridin-4-yl)quinolin-8-ol]",Selectivity Ratio (SR) (A431/A431-B1),[1],24.7
"COc1ccc(CNCc2cc(Br)c3cccnc3c2O)cc1 [Example 10, 5-Bromo-7-(((4-methoxybenzyl)amino)methyl)quinolin-8-ol]",Selectivity Ratio (SR) (A431/A431-B1),[1],11.2
same,melting point,,129 to 132 °C
"Oc1c(C2NCCc3sccc32)ccc2cccnc12 (stereo not shown) [Example 18, 7-(4,5,6,7-Tetrahydrothieno[3,2-c]pyridin-4-yl)quinolin-8-ol]",IC50,MES-SA/Dx5 cell line; [9],157 nM
same,Fraction of P-gp-negative cells (P3) in the population,[4],80.6%
same,Fraction of P-gp-positive cells (P4) in the population,[4],19.40%
"COc1ccccc1CNCc1cc([N+](=O)[O-])c2cccnc2c1O [Example 29, 7-(((2-Methoxybenzyl)amino)methyl)-5-nitroquinolin-8-ol]",IC50,MES-SA/Dx5 cell line; [7],2090 nM
same,Selectivity Ratio (SR) (A431/A431-B1),[1],25.1
same,IC50,MES-SA cell line,40600 nM
same,melting point,,199 to 203 °C
same,Selectivity Ratio (SR),[3]; IC50 in MES-SA divided by IC50 in MES-SA/Dx5 (Table 2a),19.2
same,Selectivity Ratio (SR) (MDCK II/MDCK II B1),[5],17.1
"COc1ccc(CNCc2cc([N+](=O)[O-])c3cccnc3c2O)c(OC)c1 [Example 28, 7-(((2,4-Dimethoxybenzyl)amino)methyl)-5-nitroquinolin-8-ol]",IC50,MES-SA/Dx5 cell line; [8],440 nM
same,IC50,MES-SA/Dx5 cell line; [7],442 nM
same,SR (TQ),[2],1.6
same,IC50,MES-SA cell line,8650 nM
same,melting point,,206 to 209 °C
same,SR,[3]; MES-SA / MES-SA/Dx5 (Table 2b),19.7
same,SR,[3]; [6],19.7
"C/C(=N\Nc1ccc2cccc(O)c2n1)c1ccccc1O [Example 1, (E/Z)-2-(2-(1-(2-Hydroxyphenyl)ethylidene)hydrazinyl)quinolin-8-ol]",melting point,,225 to 228 °C
"C/C(=N\Nc1ccc2cccc(O)c2n1)c1ccccn1 [Example 2, (E/Z)-2-(2-(1-(Pyridine-2-yl)ethylidene)hydrazinyl)quinolin-8-ol]",melting point,,213 to 214 °C
